In patent publication US10683297B2 (Sunshine Lake Pharma Co., Ltd., priority 2017, dated 2020):
Marks after values point to notes of the source that are not given here.

Tests used:
[1] = molecular target: T1, JAK2 (h) (Homo sapiens, UniProt O60674); assay: JAK2 (h) kinase assay; type: biochemical; conditions: [γ-33P-ATP] 10 μM or KM values; 40 minutes at room temperature
T1 construct: purchased Millipore UK Ltd (assays performed there as a service)
Method: Kinase assays can be performed by measurement of incorporation of γ-^33P ATP into immobilized myelin basic protein (MBP). High binding white 384 well plates (Greiner) are coated with MBP (Sigma # M-1891) by incubation of 60 μL well of 20 μg/mL MBP in Tris-buffered saline (TBS; 50 mM Tris pH 8.0, 138 mM NaCl, 2.7 mM KCl) for 24 h at 4° C. Plates are washed 3× with 100 μL TBS. Kinase reactions are carried out in a total volume of 34 μL in kinase buffer (according to the need to make, for example, 5 mM Hepes pH 7.6, 15 mM NaCl, 0.01% bovine gamma globulin (Sigma #1-5506), 10 mM MgCl2, 1 mM DTT, 0.02% TritonX-100). Compound dilutions are performed in DMSO and added to assay wells to a final DMSO concentration of 1%. Each data point is measured in duplicate, and at least two duplicate assays are performed for each individual compound determination. Enzyme is added to final concentrations of 10 nM or 20 nM, for example. A mixture of unlabeled ATP and γ-^33P ATP is added to start the reaction (2×10^6 cpm of γ-^33P ATP per well (3000 Ci/mmole) and 10 μM unlabeled ATP, typically. The reactions are carried out for 1 hour at room temperature with shaking. Plates are washed 7× with TBS, followed by the addition of 50 μL well scintillation fluid (Wallac). Plates are read using a Wallac Trilux counter. This is only one format of such assays; various other formats are possible, as known to one skilled in the art.
(§1) The above assay procedure can be used to determine the IC50 for inhibition and/or the inhibition constant, Ki. […] The IC50 value is estimated by preparing a 10 point curve using a ½ log dilution series (for example, a typical curve may be prepared using the following compound concentrations: 3 μM, 1 μM, 0.3 μM, 0.1 μM, 0.03 μM, 0.01 μM, 0.003 μM, 0.001 μM, 0.0003 μM and 0 μM).
JAK2 (h) is incubated with 8 mM MOPS pH 7.0, 0.2 mM EDTA, 100 μM […], 10 mM MgAcetate and [γ-^33P-ATP] […] The reaction is initiated by the addition of the MgATP mix. After incubation for 40 minutes at room temperature, the reaction is stopped by the addition of 3% phosphoric acid solution. 10 μL of the reaction is then spotted onto a P30 filtermat and washed three times for 5 minutes in 75 mM phosphoric acid and once in methanol prior to drying and scintillation counting.
(§2) The kinase assays described herein were performed at Millipore UK Ltd, Dundee Technology Park, Dundee DD2 1SW, UK.

[2] = Compound stability in human liver microsomes; type: in vitro ADME; conditions: for half-life at 5 μM: human liver microsomes 0.5 mg protein/mL, compound 5 μM, NADPH 1.0 mM, pH 7.4, 37° C., read-out: Human T1/2; for CLint scaled at 5 μM: liver microsomes, pH 7.4, in vivo CLint extrapolated from human liver microsome incubation
Summary of the method: (§3)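 Compounds (5 μM) incubated at 37 °C with human or rat liver microsomes (0.5 mg protein/mL) and 1.0 mM NADPH in 100 mM phosphate buffer pH 7.4, 0.05% DMSO, in duplicate. Sampled 0–60 min, quantified by LC/MS/MS as % of time zero; CLint extrapolated.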

[3] = molecular target: T2, JAK1 (h) (Homo sapiens, UniProt P23458); assay: JAK1 (h) kinase assay; type: biochemical; conditions: [γ-33P-ATP] 10 μM or KM values; 40 minutes at room temperature
T2 construct: purchased Millipore UK Ltd (assays performed there as a service)
T2 sequence (P23458 whole entry): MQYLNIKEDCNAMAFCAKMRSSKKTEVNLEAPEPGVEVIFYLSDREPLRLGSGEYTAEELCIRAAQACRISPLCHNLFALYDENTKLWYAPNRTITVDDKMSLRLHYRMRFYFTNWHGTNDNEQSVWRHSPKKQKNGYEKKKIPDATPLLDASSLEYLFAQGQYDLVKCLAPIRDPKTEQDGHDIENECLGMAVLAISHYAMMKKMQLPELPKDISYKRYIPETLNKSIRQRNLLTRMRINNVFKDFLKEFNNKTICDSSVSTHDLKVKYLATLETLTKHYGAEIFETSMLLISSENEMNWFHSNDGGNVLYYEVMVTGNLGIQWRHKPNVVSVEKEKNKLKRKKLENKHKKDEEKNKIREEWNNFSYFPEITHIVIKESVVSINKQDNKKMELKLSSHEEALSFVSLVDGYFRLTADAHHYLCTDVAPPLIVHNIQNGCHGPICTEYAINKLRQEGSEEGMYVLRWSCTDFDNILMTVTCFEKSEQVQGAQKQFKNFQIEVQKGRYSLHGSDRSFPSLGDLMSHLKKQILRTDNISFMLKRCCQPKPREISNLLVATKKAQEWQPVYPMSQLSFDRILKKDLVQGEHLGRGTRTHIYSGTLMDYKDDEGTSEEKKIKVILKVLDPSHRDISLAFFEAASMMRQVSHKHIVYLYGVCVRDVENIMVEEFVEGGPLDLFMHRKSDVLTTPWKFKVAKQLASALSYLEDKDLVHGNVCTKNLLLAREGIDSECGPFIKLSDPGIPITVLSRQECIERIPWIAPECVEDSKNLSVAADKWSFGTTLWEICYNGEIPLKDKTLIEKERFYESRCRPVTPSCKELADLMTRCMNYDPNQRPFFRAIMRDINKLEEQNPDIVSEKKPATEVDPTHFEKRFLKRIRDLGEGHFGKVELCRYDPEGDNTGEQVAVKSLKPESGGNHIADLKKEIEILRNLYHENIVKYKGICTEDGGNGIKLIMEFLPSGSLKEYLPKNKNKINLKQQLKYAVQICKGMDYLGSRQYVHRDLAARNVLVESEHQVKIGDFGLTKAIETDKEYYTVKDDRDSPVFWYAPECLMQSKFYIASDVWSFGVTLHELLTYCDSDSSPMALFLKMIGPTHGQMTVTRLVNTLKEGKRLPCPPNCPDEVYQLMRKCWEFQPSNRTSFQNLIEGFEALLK
Summary of the method: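 Radiometric filter-binding assay: human JAK1 incubated 40 min at room temperature in 20 mM Tris/HCl pH 7.5, 0.2 mM EDTA, 500 μM peptide substrate, 10 mM Mg acetate, with [γ-33P]ATP at 10 μM or KM. Reaction stopped with phosphoric acid; P30 filtermat scintillation counting.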

[4] = Compound stability in rat liver microsomes; type: in vitro ADME; conditions: for CLint scaled at 5 μM: liver microsomes, pH 7.4, in vivo CLint extrapolated from rat liver microsome incubation; for half-life at 5 μM: rat liver microsomes 0.5 mg protein/mL, compound 5 μM, NADPH 1.0 mM, pH 7.4, 37° C., read-out: Rat T1/2
Summary of the method: as §3

[5] = molecular target: T3, Aurora-B (h) (Homo sapiens, UniProt Q96GD4); assay: Aurora-B (h) kinase assay; type: biochemical; conditions: [γ-33P-ATP] 10 μM or KM values; 40 minutes at room temperature
T3 construct: purchased Millipore UK Ltd (assays performed there as a service)
T3 sequence (Q96GD4 whole entry): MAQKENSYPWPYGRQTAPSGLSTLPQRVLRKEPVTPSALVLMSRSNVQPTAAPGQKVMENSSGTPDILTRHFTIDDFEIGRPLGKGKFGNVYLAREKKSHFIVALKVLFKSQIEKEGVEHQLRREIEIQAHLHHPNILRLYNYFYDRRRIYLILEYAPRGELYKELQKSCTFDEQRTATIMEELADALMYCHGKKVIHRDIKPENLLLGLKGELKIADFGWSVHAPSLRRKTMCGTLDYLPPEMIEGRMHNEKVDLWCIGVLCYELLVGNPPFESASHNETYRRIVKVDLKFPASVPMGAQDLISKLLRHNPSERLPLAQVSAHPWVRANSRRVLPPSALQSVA
Method: as §1
Aurora-B (h) is incubated with 8 mM MOPS pH 7.0, 0.2 mM EDTA, 30 μM […], 10 mM MgAcetate and [γ-^33PATP] […] The reaction is initiated by the addition of the MgATP mix. After incubation for 40 minutes at room temperature, the reaction is stopped by the addition of a 3% phosphoric acid solution. 10 μL of the reaction is then spotted onto a P30 filtermat and washed three times for 5 minutes in 75 mM phosphoric acid and once in methanol prior to drying and scintillation counting.
as §2

[6] = tested on: PMA-induced increase in mouse ear thickness and weight; assay: Topical PMA-induced acute atopic dermatitis in ICR mice; type: in vivo; conditions: ICR female mice, 0.3 mg/ear/bid topical
Method: ICR female mice (20-30 g), five mice or nine mice/group, were used in this study. Five micrograms of PMA (phorbol 12-myristate 13-acetate) in 20 μL of ethanol was applied topically to the anterior and posterior surface of the right ear of each mouse. Twenty microliters of vehicle (ethanol/acetone ([…])=1/1); 0.3 mg of EX. 68 ([…]); EX. 76, EX. 50, EX. 92 or EX. 65 (0.3 mg […]) were administrated to the same areas 30 minutes before and 15 minutes after PMA application. The thickness of right ears of each mouse was measured 6 hours after PMA stimulation. Ear weight of right ears of each mouse was weighed with analytical balance Each value represents the Mean±Sem. Statistical significance compared with model groups (*P<0.05; **P<0.01). Tables 5-1, 5-2 and 5-3 listed the inhibitory effect on PMA-induced increase in mouse ear thickness and weight. The compounds of the present invention have a good inhibitory effect on PMA-induced increase in mouse ear thickness and weight.

T1 sequence (O60674 whole entry): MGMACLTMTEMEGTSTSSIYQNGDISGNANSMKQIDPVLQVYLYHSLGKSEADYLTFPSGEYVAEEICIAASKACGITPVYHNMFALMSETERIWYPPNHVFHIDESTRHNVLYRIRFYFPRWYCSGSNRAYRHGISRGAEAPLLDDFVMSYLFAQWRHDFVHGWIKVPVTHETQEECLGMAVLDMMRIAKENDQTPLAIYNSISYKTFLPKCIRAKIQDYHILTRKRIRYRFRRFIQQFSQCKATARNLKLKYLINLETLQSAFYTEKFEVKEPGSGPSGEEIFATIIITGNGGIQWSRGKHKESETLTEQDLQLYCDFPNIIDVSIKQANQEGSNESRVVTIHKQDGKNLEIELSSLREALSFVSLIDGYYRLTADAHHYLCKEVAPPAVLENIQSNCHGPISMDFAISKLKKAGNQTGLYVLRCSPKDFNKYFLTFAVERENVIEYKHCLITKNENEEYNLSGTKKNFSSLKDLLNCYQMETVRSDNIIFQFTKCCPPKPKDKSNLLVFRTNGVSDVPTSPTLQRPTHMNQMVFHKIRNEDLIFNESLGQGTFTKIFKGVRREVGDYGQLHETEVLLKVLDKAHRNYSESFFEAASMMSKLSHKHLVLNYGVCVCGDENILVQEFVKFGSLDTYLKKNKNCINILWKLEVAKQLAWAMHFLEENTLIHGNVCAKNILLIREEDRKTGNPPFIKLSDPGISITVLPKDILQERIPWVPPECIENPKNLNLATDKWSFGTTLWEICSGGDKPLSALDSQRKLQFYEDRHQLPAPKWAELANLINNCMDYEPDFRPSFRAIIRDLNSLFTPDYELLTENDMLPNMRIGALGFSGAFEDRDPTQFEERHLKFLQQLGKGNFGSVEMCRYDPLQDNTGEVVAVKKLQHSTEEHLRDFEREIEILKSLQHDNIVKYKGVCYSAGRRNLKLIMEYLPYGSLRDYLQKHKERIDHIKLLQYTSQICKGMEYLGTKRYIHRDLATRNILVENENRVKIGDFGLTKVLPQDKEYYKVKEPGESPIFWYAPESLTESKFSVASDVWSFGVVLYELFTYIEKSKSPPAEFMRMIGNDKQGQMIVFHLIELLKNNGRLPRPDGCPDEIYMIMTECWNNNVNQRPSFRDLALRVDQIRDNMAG

IC50 [1]	half-life at 5 μM [2]	CLint scaled at 5 μM [2]	IC50 [3]	CLint scaled at 5 μM [4]	half-life at 5 μM [4]	IC50 [5]	SMILES	Weight Inhibition ratio [6]	thickness (right ear) ([6]; 30 minutes before and 15 minutes after PMA, 6 hours after PMA, Mean±Sem)	Weight (right ear) ([6]; 30 minutes before and 15 minutes after PMA, Mean±Sem)	thickness Inhibition ratio ([6]; 6 hours after PMA)
2 nM	192 min	9.1 mL/min/kg	0.4 nM	75.3 mL/min/kg	33 min	48 nM	CC(C)(O)Cn1nnc2cc(Nc3ncc(Cl)c(NC4CCN(c5ccc(C#N)nn5)CC4)n3)ccc21 [Example 62, 6-(4-((5-chloro-2-((1-(2-hydroxy-2-methylpropyl)-1H-benzo[d][1,2,3]triazol-5-yl)amino)pyrimidin-4-yl)amino)piperidin-1-yl)pyridazine-3-carbonitrile]				
17 nM	32.5 min	53.5 mL/min/kg	0.3 nM	106 mL/min/kg	23.5 min	163 nM	CN(C)C(=O)c1nc2cc(Nc3ncc(Cl)c(NC4CCN(c5ccc(C#N)nn5)CC4)n3)ccn2n1 [Example 85, 7-((5-chloro-4-((1-(6-cyanopyridazin-3-yl)piperidin-4-yl)amino)pyrimidin-2-yl)amino)-N,N-dimethyl-[1,2,4]triazolo[1,5-a]pyridine-2-carboxamide]				
	8 min	218 mL/min/kg	0.9 nM	473 mL/min/kg	5.3 min		CCCn1nnc2cc(Nc3ncc(Cl)c(NC4CCN(c5ccc(C#N)nn5)CC4)n3)ccc21 [Example 65, 6-(4-((5-chloro-2-((1-propyl-1H-benzo[d][1,2,3]triazol-5-yl)amino)pyrimidin-4-yl)amino)piperidin-1-yl)pyridazine-3-carbonitrile]	46.22%	0.374 ± 0.022** mm	26.333 ± 1.958* mg	38.95%
